Data taken from patent publication US8846730B2, “Compounds as cannabinoid receptor ligands” (priority 2008, dated 2014).
Read-outs that look alike come from different tables or passages of the source.

How the values were obtained:
[1] = biological target: human CB2 receptors (Homo sapiens (Human), UniProt P34972); assay: human CB2 radioligand binding assay ([3H]CP 55,940 competition); details: HEK293 membranes, 0.5 nM [3H]CP 55,940; read-out: human CB2 (Ki)
Protocol: (§1) The CB1 and CB2 radioligand binding assays described herein are utilized to ascertain the affinity of compounds of the present application for binding to CB2 relative to CB1 receptors.
HEK293 cells stably expressing human CB2 receptors were grown until a confluent monolayer was formed. Briefly, the cells were harvested and homogenized in TE buffer (50 mM Tris-HCl, 1 mM MgCl2, and 1 mM EDTA) using a polytron for 2×10 second bursts in the presence of protease inhibitors, followed by centrifugation at 45,000×g for 20 minutes. The final membrane pellet was re-homogenized in storage buffer (50 mM Tris-HCl, 1 mM MgCl2, and 1 mM EDTA and 10% sucrose) and frozen at −78° C. until used. Saturation binding reactions were initiated by the addition of membrane preparation (protein concentration of 5 μg/well for human CB2) into wells of a deep well plate containing [^3H]CP 55,940 (120 Ci/mmol, a nonselective CB agonist commercially available from Tocris) in assay buffer (50 mM Tris, 2.5 mM EDTA, 5 mM MgCl2, and 0.5 mg/mL fatty acid free BSA, pH 7.4). After 90 min incubation at 30° C., binding reaction was terminated by the addition of 300 μL/well of cold assay buffer followed by rapid vacuum filtration through a UniFilter-96 GF/C filter plates (pre-soaked in 1 mg/mL BSA for 2 hours). The bound activity was counted in a TopCount using Microscint-20. Saturation experiments were conducted with twelve concentrations of [^3H]CP 55,940 ranging from 0.01 to 8 nM. Competition experiments were conducted with 0.5 nM [^3H]CP 55,940 and five concentrations (0.01 nM to 10 μM) of displacing ligands. The addition of 10 μM unlabeled CP 55,940 (Tocris, Ellisville, Mo.) was used to assess nonspecific binding.

[2] = biological target: rat CB2 receptors (Rattus norvegicus (Rat), UniProt Q9QZN9); assay: rat CB2 radioligand binding assay ([3H]CP 55,940 competition); details: HEK293 membranes, 0.5 nM [3H]CP 55,940
Protocol: as §1
HEK293 cells stably expressing rat CB2 receptors were grown until a confluent monolayer was formed. Briefly, the cells were harvested and homogenized in TE buffer (50 mM Tris-HCl, 1 mM MgCl2, and 1 mM EDTA) using a polytron for 2×10 second bursts in the presence of protease inhibitors, followed by centrifugation at 45,000×g for 20 minutes. The final membrane pellet was re-homogenized in storage buffer (50 mM Tris-HCl, 1 mM MgCl2, and 1 mM EDTA and 10% sucrose) and frozen at −78° C. until used. Saturation binding reactions were initiated by the addition of membrane preparation (protein concentration of 20 μg/well for rat CB2) into wells of a deep well plate containing [^3H]CP 55,940 (120 Ci/mmol, a nonselective CB agonist commercially available from Tocris) in assay buffer (50 mM Tris, 2.5 mM EDTA, 5 mM MgCl2, and 0.5 mg/mL fatty acid free BSA, pH 7.4). After 45 min incubation at 30° C., binding reaction was terminated by the addition of 300 μl/well of cold assay buffer followed by rapid vacuum filtration through a UniFilter-96 GF/C filter plates (pre-soaked in 1 mg/mL BSA for 2 hours). The bound activity was counted in a TopCount using Microscint-20. Saturation experiments were conducted with twelve concentrations of [^3H]CP 55,940 ranging from 0.01 to 8 nM. Competition experiments were conducted with 0.5 nM [^3H]CP 55,940 and five concentrations of displacing ligands selected from the range of 0.01 nM to 10 μM. The addition of 10 μM unlabeled CP 55,940 (Tocris, Ellisville, Mo.) was used to assess nonspecific binding.

[3] = biological target: rat CB2 receptors (HEK cells) (Rattus norvegicus (Rat), UniProt Q9QZN9); assay: rat CB2 cyclase functional assay (HitHunter cAMP); format: cell-based
Protocol: (§2) The cyclase functional assays were performed using the HitHunter™ cAMP assay kit from DiscoveRx (Fremont, Calif.) according to vendor's protocol. Briefly, HEK cells expressing CB2 or CB1 receptors (rat or human) were detached using cell dissociation buffer (Invitrogen, Carlsbad, Calif.), dispersed and placed in suspension at 10,000 cells per well in 96 well plates prior to the assay. Cell suspensions were incubated at 37° C. for 20 min with variable concentrations of test ligands and or 10 μM CP 55,940-positive control in the presence of a fixed concentration of forskolin (18 μM for rat CB2 and 37 μM for rat CB1) in Dulbescco's phosphate-buffered saline (Invitrogen, Carlsbad, Calif.) supplemented with bovine serum albumin (0.01% final concentration). The reactions were terminated by the addition of lysis buffer and the luminescence was detected following the procedure according to the manufacturer's instructions. EC50 values were calculated using sigmoidal dose-response curve fitting from Prism (GraphPad).

[4] = biological target: rat CB1 receptors (HEK cells) (Rattus norvegicus (Rat), UniProt P20272); assay: rat CB1 cyclase functional assay (HitHunter cAMP); format: cell-based
Chain of rat CB1 receptors (HEK cells) (P20272 whole entry): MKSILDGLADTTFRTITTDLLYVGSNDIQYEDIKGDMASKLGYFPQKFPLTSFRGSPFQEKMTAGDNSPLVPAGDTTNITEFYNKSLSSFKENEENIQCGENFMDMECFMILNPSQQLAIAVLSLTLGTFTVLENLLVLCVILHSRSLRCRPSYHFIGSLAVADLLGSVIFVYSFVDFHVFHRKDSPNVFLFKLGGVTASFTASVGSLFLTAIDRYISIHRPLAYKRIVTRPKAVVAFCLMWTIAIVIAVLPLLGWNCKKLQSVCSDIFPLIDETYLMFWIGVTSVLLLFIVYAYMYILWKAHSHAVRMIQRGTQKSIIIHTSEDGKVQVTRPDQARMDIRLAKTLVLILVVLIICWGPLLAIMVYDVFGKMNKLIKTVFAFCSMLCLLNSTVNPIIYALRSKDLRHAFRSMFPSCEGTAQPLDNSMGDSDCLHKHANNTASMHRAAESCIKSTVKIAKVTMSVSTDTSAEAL
Protocol: as §2

[5] = HEK cells, forskolin 18 μM, read-out: rat CB2 cyclase (EC50)

Chain of human CB2 receptors (P34972 whole entry): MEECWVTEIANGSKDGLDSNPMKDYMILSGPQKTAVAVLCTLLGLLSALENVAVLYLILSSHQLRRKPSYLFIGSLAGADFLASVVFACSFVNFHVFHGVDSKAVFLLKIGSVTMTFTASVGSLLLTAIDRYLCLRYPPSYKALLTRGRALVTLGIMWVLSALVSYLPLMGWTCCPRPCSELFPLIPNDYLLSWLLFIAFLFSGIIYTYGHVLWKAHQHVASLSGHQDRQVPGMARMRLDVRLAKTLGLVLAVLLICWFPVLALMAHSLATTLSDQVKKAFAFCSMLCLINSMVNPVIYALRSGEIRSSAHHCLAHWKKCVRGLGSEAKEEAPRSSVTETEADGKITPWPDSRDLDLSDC

Compound | Ki [1] | Ki [2] | EC50 [3, 5] | EC50 [4] | EC50 [3] | EC50 ([4]; HEK cells, forskolin 37 μM, read-out: rCB1 cyclase (EC50))
CC(C)(C)c1cn(C[C@H]2CCCO2)/c(=N/C(=O)c2cc(C(F)(F)F)ccc2OCc2cnccn2)s1 [Example 19, N-[(2Z)-5-tert-butyl-3-[(2R)-tetrahydrofuran-2-ylmethyl]-1,3-thiazol-2(3H)-ylidene]-2-(pyrazin-2-ylmethoxy)-5-(trifluoromethyl)benzamide] | 5 nM | 5 nM | 0.41 nM | 3390 nM | – | –
CC(C)(C)c1cn(C[C@H]2CCCO2)/c(=N/C(=O)c2cc(C(F)(F)F)ccc2OCc2cccc[n+]2[O-])s1 [Example 20, N-[(2Z)-5-tert-butyl-3-[(2R)-tetrahydrofuran-2-ylmethyl]-1,3-thiazol-2(3H)-ylidene]-2-[(1-oxidopyridin-2-yl)methoxy]-5-(trifluoromethyl)benzamide] | 209 nM | 51 nM | 0.47 nM | 7980 nM | – | –
CC(C)(C)c1cn(C[C@H]2CCCO2)/c(=N/C(=O)c2cc(C(F)(F)F)ccc2OCc2cccnc2)s1 [Example 21, N-[(2Z)-5-tert-butyl-3-[(2R)-tetrahydrofuran-2-ylmethyl]-1,3-thiazol-2(3H)-ylidene]-2-(pyridin-3-ylmethoxy)-5-(trifluoromethyl)benzamide] | 13 nM | 10 nM | – | 6220 nM | 0.21 nM | –
CC(C)(C)c1cn(C[C@H]2CCCO2)/c(=N/C(=O)c2cc(C(F)(F)F)ccc2OC[C@H]2CCCO2)s1 [Example 22, N-[(2Z)-5-tert-butyl-3-[(2R)-tetrahydrofuran-2-ylmethyl]-1,3-thiazol-2(3H)-ylidene]-2-[(2R)-tetrahydrofuran-2-ylmethoxy]-5-(trifluoromethyl)benzamide] | 3 nM | 0.5 nM | – | 3230 nM | 0.07 nM | –
CC(C)(C)c1cn(C[C@H]2CCCO2)/c(=N/C(=O)c2cc(C(F)(F)F)ccc2OC[C@@H]2CCCO2)s1 [Example 23, N-[(2Z)-5-tert-butyl-3-[(2R)-tetrahydrofuran-2-ylmethyl]-1,3-thiazol-2(3H)-ylidene]-2-[(2S)-tetrahydrofuran-2-ylmethoxy]-5-(trifluoromethyl)benzamide] | 0.5 nM | 0.3 nM | – | 941 nM | 0.14 nM | –
CN1CCC[C@H]1COc1ccc(C(F)(F)F)cc1C(=O)/N=c1\sc(C(C)(C)C)cn1C[C@H]1CCCO1 [Example 24, N-[(2Z)-5-tert-butyl-3-[(2R)-tetrahydrofuran-2-ylmethyl]-1,3-thiazol-2(3H)-ylidene]-2-{[(2S)-1-methylpyrrolidin-2-yl]methoxy}-5-(trifluoromethyl)benzamide] | 4.6 nM | 3.4 nM | 0.09 nM | 1990 nM | – | –
CN1CCC[C@@H]1COc1ccc(C(F)(F)F)cc1C(=O)/N=c1\sc(C(C)(C)C)cn1C[C@H]1CCCO1 [Example 26, N-[(2Z)-5-tert-butyl-3-[(2R)-tetrahydrofuran-2-ylmethyl]-1,3-thiazol-2(3H)-ylidene]-2-{[(2R)-1-methylpyrrolidin-2-yl]methoxy}-5-(trifluoromethyl)benzamide] | 206 nM | 70 nM | 2.18 nM | 11200 nM | – | –
CN1CC[C@@H](COc2ccc(C(F)(F)F)cc2C(=O)/N=c2\sc(C(C)(C)C)cn2C[C@H]2CCCO2)C1 [Example 30, N-[(2Z)-5-tert-butyl-3-[(2R)-tetrahydrofuran-2-ylmethyl]-1,3-thiazol-2(3H)-ylidene]-2-{[(3R)-1-methylpyrrolidin-3-yl]methoxy}-5-(trifluoromethyl)benzamide] | 141 nM | 29 nM | – | 12100 nM | 4.98 nM | –
CN1CC[C@H](COc2ccc(C(F)(F)F)cc2C(=O)/N=c2\sc(C(C)(C)C)cn2C[C@H]2CCCO2)C1 [Example 31, N-[(2Z)-5-tert-butyl-3-[(2R)-tetrahydrofuran-2-ylmethyl]-1,3-thiazol-2(3H)-ylidene]-2-{[(3 S)-1-methylpyrrolidin-3-yl]methoxy}-5-(trifluoromethyl)benzamide] | 92 nM | 84 nM | – | 10700 nM | 3.58 nM | –
CC(C)(C)c1cn(C[C@@H]2CCCO2)/c(=N/C(=O)c2cc(C(F)(F)F)ccc2OC[C@H](N)CO)s1 [Example 33, 2-{[(2R)-2-amino-3-hydroxypropyl]oxy}-N-[(2Z)-5-tert-butyl-3-[(2S)-tetrahydrofuran-2-ylmethyl]-1,3-thiazol-2(3H)-ylidene]-5-(trifluoromethyl)benzamide] | 7.4 nM | 2.8 nM | 0.18 nM | 1170 nM | – | –
CN1CCN(C)C(COc2ccc(C(F)(F)F)cc2C(=O)/N=c2\sc(C(C)(C)C)cn2C[C@@H]2CCCO2)C1 (stereo partly drawn) [Example 34, N-[(2Z)-5-tert-butyl-3-[(25)-tetrahydrofuran-2-ylmethyl]-1,3-thiazol-2(3H)-ylidene]-2-[(1,4-dimethylpiperazin-2-yl)methoxy]-5-(trifluoromethyl)benzamide] | 25 nM | 13 nM | 0.3 nM | – | – | 4090 nM
CN(CCOc1ccc(C(F)(F)F)cc1C(=O)/N=c1\sc(C(C)(C)C)cn1C[C@H]1CCCO1)c1ccccc1 [Example 35, N-[(2Z)-5-tert-butyl-3-[(2R)-tetrahydrofuran-2-ylmethyl]-1,3-thiazol-2(3H)-ylidene]-2-{2-[methyl(phenyl)amino]ethoxy}-5-(trifluoromethyl)benzamide] | 14 nM | 6.5 nM | 6.31 nM | 9490 nM | – | –
CC(C)(C)c1cn(C[C@H]2CCCO2)/c(=N/C(=O)c2cc(C(F)(F)F)ccc2OCc2ccccc2)s1 [Example 36, 2-(benzyloxy)-N-[(2Z)-5-tert-butyl-3-[(2R)-tetrahydrofuran-2-ylmethyl]-1,3-thiazol-2(3H)-ylidene]-5-(trifluoromethyl)benzamide] | 6 nM | 2.9 nM | 1.47 nM | 6560 nM | – | –
CC(C)(C)c1cn(C[C@H]2CCCO2)/c(=N/C(=O)c2cc(C(F)(F)F)ccc2OCc2cnco2)s1 [Example 37, N-[(2Z)-5-tert-butyl-3-[(2R)-tetrahydrofuran-2-ylmethyl]-1,3-thiazol-2(3H)-ylidene]-2-(1,3-oxazol-5-ylmethoxy)-5-(trifluoromethyl)benzamide] | 26 nM | 9 nM | – | 7550 nM | 0.5 nM | –
CC(C)(C)c1cn(C[C@H]2CCCO2)/c(=N/C(=O)c2cc(C(F)(F)F)ccc2OCc2nccs2)s1 [Example 38, N-[(2Z)-5-tert-butyl-3-[(2R)-tetrahydrofuran-2-ylmethyl]-1,3-thiazol-2(3H)-ylidene]-2-(1,3-thiazol-2-ylmethoxy)-5-(trifluoromethyl)benzamide] | 5.5 nM | 2.5 nM | – | 2000 nM | 0.33 nM | –
